9 molecules from patent US20120010235A1, “N-SUBSTITUTED PYRROLIDINES” (priority 2010, published 2012) can be followed below.

The test system of this test is SJSA, an osteocarcinoma cell line. In words: antiproliferative activity assay (tetrazolium dye, MTT) in SJSA cells. The settings on record: cell-based MTT assay, inhibition of cell proliferation, read-out: TT IC50. The method, then: The pharmacological properties of the compounds of this invention may be confirmed by a number of pharmacological assays. The exemplified antiproliferative activity assay which follows has been carried out with the compounds according to the invention.
Cell proliferation was evaluated by the tetrazolium dye assay according to the procedure of Denizot and Lang (Denizot, F. and Lang, R. (1986) Rapid colorimetric assay for cell growth and survival. Modification to the terrazolium dye procedure giving improved sensitivity and reliability. J. Immunol. Methods 89, 271-277). The cell line used was SJSA, an osteocarcinoma cell line obtained from the American Type Cell Culture Collection (ATCC; Rockville, Md.). The cells were grown in PRMI with 10% FBS (Fetal Bovine Serum, Invitrogen).
Cells were plated at the appropriate seeding density to give logarithmic growth over the course of the assay in a 96-well tissue culture plate. Plates were incubated overnight at 37° C. in a humidified incubator with 5% CO2. The next day, test compounds were serially diluted 1:3 in the appropriate medium containing 3% DMSO. One-tenth final volume of each dilution was added […] to the plates containing cells. The same volume of 3% DMSO in medium was added to a row of control wells. Thus, the final concentration of DMSO in all wells was 0.3%. The plates were returned to the incubator, and at set time points (determined by their growth curves) plates were analyzed as follows: 3-(4,5-dimethylthiazole-2-yl)-2,5-diphenyl-2H-tetrazolium bromide (thiazolyl blue; MTT; Sigma) was added to each well to yield a final concentration of 1 mg/ml. Plates were returned to the incubator for 2.5 hours. The MTT-containing medium was removed and the resulting formazan metabolite was solubilized in 100% ethanol with shaking for 15 minutes at room temperature. Absorbances were read in a microtiter plate reader at a wavelength of 570 nm with a 650 nm reference. Percent inhibition (% INH) was calculated by subtracting the blank from all wells, then subtracting the ratio of the average absorbance of each triplicate (SAVE) by the average of the controls (CAVE) from 1.00. The final product was then multiplied by 100 (% INH=(1.00−SAVE/CAVE)×100). The concentration at which 50% inhibition (IC50) of cell proliferation is obtained was determined from the linear regression of a plot of the logarithm of the concentration versus percent inhibition.

Counter-ions that a name gives are not always drawn.

The IC50 is the concentration that inhibits the measured activity by half. Consider `COc1cc(C(=O)O)ccc1NC(=O)[C@H]1[C@H](c2cccc(Cl)c2F)[C@@](C#N)(c2ccc(Cl)cc2F)[C@H](CC(C)(C)C)N1C` (racemic) [Example 39, rac-4-{[(2R,3S,4R,5S)-3-(3-chloro-2-fluoro-phenyl)-4-(4-chloro-2-fluoro-phenyl)-4-cyano-5-(2,2-dimethyl-propyl)-1-methyl-pyrrolidine-2-carbonyl]-amino}-3-methoxy-benzoic acid], for which the half-maximal inhibitory concentration (IC50) turned out to be 0.04 µM. In the case of `COc1cc(C(N)=O)ccc1NC(=O)[C@H]1[C@H](c2cccc(Cl)c2F)[C@@](C#N)(c2ccc(Cl)cc2F)[C@H](CC(C)(C)C)N1C` (racemic) [Example 50, rac-(2R,3S,4R,5S)-3-(3-chloro-2-fluoro-phenyl)-4-(4-chloro-2-fluoro-phenyl)-4-cyano-5-(2,2-dimethyl-propyl)-1-methyl-pyrrolidine-2-carboxylic acid (4-carbamoyl-2-methoxy-phenyl)-amide] it was 0.37 µM; in that of `CC(C)CN1[C@@H](CC(C)(C)C)[C@](C#N)(c2ccc(Cl)cc2F)[C@@H](c2cccc(Cl)c2F)[C@@H]1C(=O)Nc1ccc(C(=O)O)cc1` [Example 32, 4-{[(2R,3S,4R,5S)-3-(3-chloro-2-fluoro-phenyl)-4-(4-chloro-2-fluoro-phenyl)-4-cyano-5-(2,2-dimethyl-propyl)-1-isobutyl-pyrrolidine-2-carbonyl]-amino}-benzoic acid], 0.66 µM. In the case of `COc1cc(NC(=O)[C@H]2[C@H](c3cccc(Cl)c3F)[C@@](C#N)(c3ccc(Cl)cc3F)[C@H](CC(C)(C)C)N2C)ccc1C(=O)O` (racemic) [Example 42, 4-{[(2R,3S,4R,5S)-3-(3-chloro-2-fluoro-phenyl)-4-(4-chloro-2-fluoro-phenyl)-4-cyano-5-(2,2-dimethyl-propyl)-1-methyl-pyrrolidine-2-carbonyl]-amino}-2-methoxy-benzoic acid], the IC50 came to 1.36 µM. To `COc1cc(NC(=O)[C@H]2[C@H](c3cccc(Cl)c3F)[C@@](C#N)(c3ccc(Cl)cc3F)[C@H](CC(C)(C)C)N2CCC2CCCCC2)ccc1C(=O)O` (racemic) [Example 48, 4-{[(2R,3S,4R,5S)-3-(3-chloro-2-fluoro-phenyl)-4-(4-chloro-2-fluoro-phenyl)-4-cyano-1-(2-cyclohexyl-ethyl)-5-(2,2-dimethyl-propyl)-pyrrolidine-2-carbonyl]-amino}-2-methoxy-benzoic acid trifluoroacetate salt] belongs 0.43 µM; to `COc1cc(NC(=O)[C@H]2[C@H](c3cccc(Cl)c3F)[C@@](C#N)(c3ccc(Cl)cc3F)[C@H](CC(C)(C)C)N2CCC(C)C)ccc1C(=O)O` (racemic) [Example 45, 4-{[(2R,3S,4R,5S)-3-(3-chloro-2-fluoro-phenyl)-4-(4-chloro-2-fluoro-phenyl)-4-cyano-5-(2,2-dimethyl-propyl)-1-(3-methyl-butyl)-pyrrolidine-2-carbonyl]-amino}-2-methoxy-benzoic acid], 0.42 µM.

As for `CN1[C@@H](CC(C)(C)C)[C@](C#N)(c2ccc(Cl)cc2F)[C@@H](c2cccc(Cl)c2F)[C@@H]1C(=O)Nc1ccc(C(=O)O)c(F)c1` [Example 26, 4-{[(2R,3S,4R,5S)-3-(3-chloro-2-fluoro-phenyl)-4-(4-chloro-2-fluoro-phenyl)-4-cyano-5-(2,2-dimethyl-propyl)-1-methyl-pyrrolidine-2-carbonyl]-amino}-2-fluoro-benzoic acid trifluoroacetate salt], the IC50 worked out at 0.32 µM. To `CN1[C@@H](CC(C)(C)C)[C@](C#N)(c2ccc(Cl)cc2F)[C@@H](c2cccc(Cl)c2F)[C@@H]1C(=O)Nc1ccn(CC(C)(C)O)n1` [Example 58, (2R,3S,4R,5S)-3-(3-chloro-2-fluoro-phenyl)-4-(4-chloro-2-fluoro-phenyl)-4-cyano-5-(2,2-dimethyl-propyl)-1-methyl-pyrrolidine-2-carboxylic acid [1-(2-hydroxy-2-methyl-propyl)-1H-pyrazol-3-yl]-amide] belongs 3.59 µM; to `CN1[C@@H](CC(C)(C)C)[C@](C#N)(c2ccc(Cl)cc2F)[C@@H](c2cccc(Cl)c2F)[C@@H]1C(=O)Nc1ncc(C(=O)O)[nH]1` [Example 55, 2-{[(2R,3S,4R,5S)-3-(3-chloro-2-fluoro-phenyl)-4-(4-chloro-2-fluoro-phenyl)-4-cyano-5-(2,2-dimethyl-propyl)-1-methyl-pyrrolidine-2-carbonyl]-amino}-3H-imidazole-4-carboxylic acid trifluoracetate salt], 4 µM.
